Measured values: patent publication US20240124483A1, “Methods for the Treatment of Fibrotic Disease” (SHY Therapeutics, LLC, priority 2021, published 2024)
Read-outs that look alike come from different tables or passages of the source.

Key:
KRas Q61H mutant = KRas Q61H mutant (Homo sapiens (Human), UniProt P01116, Q61H); assay: Ras GTP Binding Domain Inhibition Assay, KRas Q61H mutant
Procedure: A Ras Superfamily Activity Assay (as disclosed in International Application No. PCT/US2018/038613, filed Jun. 20, 2018, which is incorporated by reference in its entirety) was used as a specific assay to evaluate compounds against the following for the following Ras Superfamily proteins: KRas wild type, KRas Q61H mutant, KRas G12C mutant, KRas G12D mutant, Rac-1, and Rho-A.
Buffer-I: • 25 mM Tris-HCl, pH 7.4 • 27 mM KCl • 137 mM NaCl • 1 mM MgCl2 • 1 mM DTT
Buffer-II: • 50 mM Tris-HCl, pH 7.0 • 1 mM MgCl2 • 1 mM DTT
The small GTPases proteins: KRas wild type. KRas Q61H mutant, KRas G12C mutant, KRas G12D mutants, Rac-1, and Rho-A were expressed as His-tagged proteins. In addition, the Guanosine nucleotide Exchange Factor (GEF) Sos protein (residues 556-1049) was expressed as a His-tagged protein. In cells, the guanine nucleotide exchange factor Sos protein promotes activation of Ras proteins by stimulating an exchange of GDP for GTP. The inclusion of Sos to the Ras GTP binding domain inhibition assay may be considered as an alternative representation of physiological cellular conditions for evaluating the inhibitory activity of some of the tested small molecules.
For the assay, all purified small GTPases proteins were diluted in Buffer-I or Buffer-II to a final concentration of 10-30 μg/mL. 200 μL of each diluted protein was added to a nickel-coated 96-well plate and incubated overnight at 4° C. Then the protein solution was discarded and 200 μL of Buffer-I or Buffer-II was added to each well in the presence of 1% DMSO. Compounds to be tested were added to the protein-coated wells at final concentration of 20 μM, and incubated for 3 hours at room temperature with and without 10-30 μg/mL of Sos added to the final hour of the incubation. When performing IC50 measurements a serial dilution of all tested concentrations was added. Then Cy3-GTP or Cy5-GTP was added to each well to a final concentration of 100 nM. The labeled GTP was incubated for 45 minutes at room temperature. Following GTP incubation, wells were washed 3× in Buffer-I or Buffer-II and 200 μL of Buffer-I or Buffer-II was added to each well. Following washes, the amount of bound labeled-GTP was measured using a SpectraMax M3 (Molecular Devices).

ERK1/2 phosphorylation = assay: Western ERK1/2 Cell-Based Phosphorylation Assay; details: Homo sapiens, PANC-1, 6 hours, EGF 1.5 ng/ml, read-out: % inh of ERK1/2 phosphorylation in PANC-1
Procedure: Cell lines: Human tumor-derived pancreatic cancer cell line Panc-1 was purchased from American Type Culture Collection and grown in complete DMEM-High Glucose, supplemented with penicillin (100 U/mL), streptomycin (100 μg/mL), and 10% heat-inactivated FBS at 37° C. in a humidified incubator with 5% CO2.
(§1) Method: Cells were plated at 350000 cells/well density in a 12-well plate, allowed 3 hours to adhere to the plate, then starved in the appropriate medium in the presence of 0.5% FBS overnight. The small molecules to be tested were added to the cells in the final concentration of 10 μM in the presence of 0.3% DMSO for 6 hours incubation at 37° C. For IC50 value determination, serial dilutions of compounds were added to cells under the same conditions. Next, cells were stimulated with 1.5 ng/ml EGF for 15 minutes then cells were lysed with lysis buffer containing 1% Triton X-100, EDTA, and Halt™ Protease & Phosphatase Inhibitor Cocktail (Thermo Scientific). Protein concentration was assessed by BCA protein assay (Thermo Scientific). Phosphorylation level of ERK1/2 was determined by western blot.
(§2) Western blot protocol: Equal amounts of protein (15-50 μg) were separated by SDS-PAGE and transferred to nitrocellulose membranes (Invitrogen by Thermo Fisher Scientific). The membrane was stained with Ponceau S Stain (Boston BioProducts) to verify uniform protein loading. Membranes were blocked with 10% milk and phosphorylation levels of ERK1/2 were assessed by incubating overnight at 4° C. with anti-phospho-p44/42 (Thr202/Tyr204) antibody (Cell Signaling) followed by HRP-conjugated secondary antibody (Jackson Immunoresearch, West Grove, PA). Bands were incubated in Amersham ECL Prime Western Blotting Detection Reagent (GE Healthcare) and visualized using the ChemiDoc MP imaging system (Bio-Rad).

AKT phosphorylation = assay: Western AKT Cell-Based Phosphorylation Assay; details: Homo sapiens, PANC-1, 6 hours, EGF 1.5 ng/ml, read-out: % inh of AKT phosphorylation in PANC-1
Procedure: Human tumor-derived pancreatic cancer cell line Panc-1 was purchased from American Type Culture Collection and grown in complete DMEM-High Glucose supplemented with penicillin (100 U/mL), streptomycin (100 μg/mL), and 10% heat-inactivated FBS at 37° C. in a humidified incubator with 5% CO2.
as §1, with “C.” for “C. For IC50 value determination, serial dilutions of compounds were added to cells under the same conditions.”, “Akt” for “ERK1/2”
as §2, with “Akt” for “ERK1/2”, “anti-phospho-Akt (Ser473)” for “anti-phospho-p44/42 (Thr202/Tyr204)”

[1] = + SOS, read-out: KRas Q61H mutant + SOS: % inh.
[2] = without SOS, read-out: KRas Q61H mutant: % inh.

KRas Q61H mutant, sequence (P01116 other isoform, or with tags, fused parts or gaps Q61H): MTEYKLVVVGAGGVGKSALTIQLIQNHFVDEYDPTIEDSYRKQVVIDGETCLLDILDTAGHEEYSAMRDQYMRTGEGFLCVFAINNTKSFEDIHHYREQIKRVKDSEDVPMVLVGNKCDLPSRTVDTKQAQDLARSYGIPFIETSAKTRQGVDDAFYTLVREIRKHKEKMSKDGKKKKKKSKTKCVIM

| Structure (SMILES) | inhibition at 20 µM (KRas Q61H mutant; [1]) [%] | inhibition at 20 µM (KRas Q61H mutant; [2]) [%] | IC50 (KRas Q61H mutant; + SOS) [µM] | inhibition at 10 µM (ERK1/2 phosphorylation) [%] | inhibition at 10 µM (AKT phosphorylation) [%] |
| --- | --- | --- | --- | --- | --- |
| CO[C@H]1CC[C@@H](Nc2nc(-c3nccn3C)nc3sc(-c4ccn(C)n4)c(-c4ccccc4)c23)C1 (racemic) [Compound 5, rac-N-((1R,3S)-3-Methoxycyclopentyl)-2-(1-methyl-1H-imidazol-2-yl)-6-(1-methyl-1H-pyrazol-3-yl)-5-phenylthieno[2,3-d]pyrimidin-4-amine] | 76 to 100 | 26 to 45 | – | – | – |
| COCCNc1nc(-c2nccn2C)nc2sc(-c3ccccc3)c(-c3ccccc3)c12 [Compound 1, N-(2-Methoxyethyl)-2-(1-methyl-1H-imidazol-2-yl)-5,6-diphenylthieno[2,3-d]pyrimidin-4-amine] | 46 to 75 | 46 to 75 | – | – | – |
| COCCCNc1nc(-c2nccn2C)nc2sc(-c3ccccc3)c(-c3ccccc3)c12 [Compound 3, N-(3-Methoxypropyl)-2-(1-methyl-1H-imidazol-2-yl)-5,6-diphenylthieno[2,3-d]pyrimidin-4-amine] | 46 to 75 | 46 to 75 | – | – | – |
| COC1CCN(c2nc(-c3nccn3C)nc3sc(-c4ccn(C)n4)c(-c4ccccc4)c23)CC1 [Compound 6, 4-(4-Methoxypiperidin-1-yl)-2-(1-methyl-1H-imidazol-2-yl)-6-(1-methyl-1H-pyrazol-3-yl)-5-phenylthieno[2,3-d]pyrimidine] | 46 to 75 | 46 to 75 | – | – | – |
| COCCNc1nc(-c2nccn2C)nc2sc(-c3cccc(OC)c3Cl)c(-c3ccc(OC)cc3)c12 [Compound 7, 6-(2-Chloro-3-methoxyphenyl)-N-(2-methoxyethyl)-5-(4-methoxyphenyl)-2-(1-methyl-1H-imidazol-2-yl)thieno[2,3-d]pyrimidin-4-amine] | 76 to 100 | 26 to 45 | – | – | – |
| COCCNc1nc(-c2cn(C)cn2)nc2sc(-c3cccc(OC)c3Cl)c(-c3ccc(OC)cc3)c12 [Compound 8, 6-(2-Chloro-3-methoxyphenyl)-N-(2-methoxyethyl)-5-(4-methoxyphenyl)-2-(1-methyl-1H-imidazol-4-yl)thieno[2,3-d]pyrimidin-4-amine] | 76 to 100 | 46 to 75 | – | – | – |
| COCCNc1nc(-c2nccn2C)nc2sc(-c3cccc(OC)c3Cl)c(-c3ccccc3)c12 [Compound 9, 6-(2-Chloro-3-methoxyphenyl)-N-(2-methoxyethyl)-2-(1-methyl-1H-imidazol-2-yl)-5-phenylthieno[2,3-d]pyrimidin-4-amine] | 76 to 100 | 46 to 75 | – | – | – |

The next lines start with results.

| inhibition at 20 µM (KRas Q61H mutant; [1]) [%] | inhibition at 20 µM (KRas Q61H mutant; [2]) [%] | IC50 (KRas Q61H mutant; + SOS) [µM] | Structure (SMILES) | inhibition at 10 µM (ERK1/2 phosphorylation) [%] | inhibition at 10 µM (AKT phosphorylation) [%] |
| --- | --- | --- | --- | --- | --- |
| 46 to 75 | 46 to 75 | – | COc1cccc(-c2sc3nc(-c4nccn4C)nc(NC4CCC(OC)C4)c3c2C)c1F (racemic) [Compound 10, rac-6-(2-Fluoro-3-methoxyphenyl)-N-((1R,3S)-3-methoxycyclopentyl)-5-methyl-2-(1-methyl-1H-imidazol-2-yl)thieno[2,3-d]pyrimidin-4-amine and rac-6-(2-Fluoro-3-methoxyphenyl)-N-((1R,3R)-3-methoxycyclopentyl)-5-methyl-2-(1-methyl-1H-imidazol-2-yl)thieno[2,3-d]pyrimidin-4-amine] | – | – |
| 76 to 100 | 76 to 100 | 5 to 10 | CO[C@H]1CC[C@@H](Nc2nc(-c3nccn3C)nc3sc(-c4ccn(C(C)C)n4)c(C)c23)C1 (racemic) [Compound 12, rac-6-(1-Isopropyl-1H-pyrazol-3-yl)-N-((1R,3S)-3-methoxycyclopentyl)-5-methyl-2-(1-methyl-1H-imidazol-2-yl)thieno[2,3-d]pyrimidin-4-amine] | – | – |
| 76 to 100 | 26 to 45 | – | COC1CCCN(c2nc(-c3nccn3C)nc3sc(-c4ccn(C(C)C)n4)c(C)c23)C1 (racemic) [Compound 14, rac-6-(1-Isopropyl-1H-pyrazol-3-yl)-4-(3-methoxypiperidin-1-yl)-5-methyl-2-(1-methyl-1H-imidazol-2-yl)thieno[2,3-d]pyrimidine] | 76 to 100 | 46 to 75 |
| 76 to 100 | 76 to 100 | – | COCC1CN(c2nc(-c3nccn3C)nc3sc(-c4ccn(C(C)C)n4)c(C)c23)CCO1 (racemic) [Compound 15, 4-(6-(1-Isopropyl-1H-pyrazol-3-yl)-5-methyl-2-(1-methyl-1H-imidazol-2-yl)thieno[2,3-d]pyrimidin-4-yl)-2-(methoxymethyl)morpholine] | 46 to 75 | 76 to 100 |
| 76 to 100 | 46 to 75 | – | COCCO[C@H]1CC[C@@H](Nc2nc(-c3nccn3C)nc3sc(-c4ccn(C(C)C)n4)c(C)c23)C1 (racemic) [Compound 20, rac-6-(1-Isopropyl-1H-pyrazol-3-yl)-N-((1R,3S)-3-(2-methoxyethoxy)cyclopentyl)-5-methyl-2-(1-methyl-1H-imidazol-2-yl)thieno[2,3-d]pyrimidin-4-amine] | 46 to 75 | 26 to 45 |
| 76 to 100 | 46 to 75 | 1 to 4.99 | CO[C@@H]1CC[C@H](Nc2nc(-c3nccn3C)nc3sc(-c4ccn(C(C)C)n4)c(-c4ccccc4)c23)C1 (single isomer, unassigned) [Compound 11] | – | – |
| 76 to 100 | 76 to 100 | 1 to 4.99 | COCCn1ccnc1-c1nc(N[C@H]2C[C@@H](OC)C2)c2c(-c3ccccc3)c(-c3ccn(C)n3)sc2n1 [Compound 13, N-((1s,3s)-3-methoxycyclobutyl)-2-(1-(2-methoxyethyl)-1H-imidazol-2-yl)-6-(1-methyl-1H-pyrazol-3-yl)-5-phenylthieno[2,3-d]pyrimidin-4-amine] | – | – |
